Source: the supplement of paper PMC10307832

Key:
Assay in all cases: relative viability (nuclei count vs DMSO), 5 days (fraction); higher = more cells survive
[1] = compound: C1COCCN1C2=NC(=NC3=C2OC4=C3C=CC=N4)C5=CC(=CC=C5)NC(=O)C6=CN=C(C=C6)N + CC1(C)CCC(c2ccc(Cl)cc2)=C(CN2CCN(c3ccc(C(=O)NS(=O)(=O)c4ccc(N[C@H](CCN5CCOCC5)CSc5ccccc5)c(S(=O)(=O)C(F)(F)F)c4)cc3)CC2)C1 [Navitoclax] (partner 0.5 µM)
In short: (§1)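 The day after seeding in 1536-well plates, lung cancer cell lines were treated by pin tool with a single drug, or with a fixed anchor-drug dose together with five library-drug doses (not always all listed) in √10 steps. After 5 days, a combined fix-and-stain solution (final 0.05% Triton X-100, 1% formaldehyde, 1 ug/ml Hoechst) was added. Nuclei counted on 4× images gave relative viability as treated counts over vehicle counts, reported as the median of duplicate plates.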

SGI-1776 + Luminespib = compound: CN1CCC(CNc2ccc3ncc(-c4cccc(OC(F)(F)F)c4)n3n2)CC1 [SGI-1776] + CCNC(=O)c1noc(-c2cc(C(C)C)c(O)cc2O)c1-c1ccc(CN2CCOCC2)cc1 [Luminespib] (partner 0.01 µM)
In short: as §1

SGI-1776 + Pictilisib = compound: CN1CCC(CNc2ccc3ncc(-c4cccc(OC(F)(F)F)c4)n3n2)CC1 [SGI-1776] + CS(=O)(=O)N1CCN(Cc2cc3nc(-c4cccc5[nH]ncc45)nc(N4CCOCC4)c3s2)CC1 [Pictilisib] (partner 1 µM)
In short: as §1

Cell Line	relative viability ([1]; first compound 0.02 µM)	relative viability ([1]; first compound 0.06325 µM)	relative viability ([1]; first compound 0.2 µM)	relative viability ([1]; first compound 0.6325 µM)	relative viability ([1]; first compound 2 µM)	relative viability (SGI-1776 + Luminespib; first compound 0.08 µM)	relative viability (SGI-1776 + Luminespib; first compound 0.8 µM)	relative viability (SGI-1776 + Luminespib; first compound 2.53 µM)	relative viability (SGI-1776 + Luminespib; first compound 8 µM)	relative viability (SGI-1776 + Pictilisib; first compound 0.08 µM)	relative viability (SGI-1776 + Pictilisib; first compound 0.8 µM)	relative viability (SGI-1776 + Pictilisib; first compound 2.53 µM)	relative viability (SGI-1776 + Pictilisib; first compound 8 µM)
LOU-NH91	0.658	0.728	0.765	0.74	0.586	0.366	0.345	0.367	0.305	0.565	0.55	0.505	0.504
LU99A	0.779	0.842	0.786	0.587	0.277	0.245	0.247	0.253	0.254	0.29	0.339	0.309	0.28
LXF-289	0.989	1.02	0.973	0.924	0.711	0.688	0.654	0.665	0.598	0.699	0.837	0.806	0.67
NCI-H23	0.788	0.968	0.733	0.72	0.533	0.217	0.221	0.238	0.192	0.558	0.448	0.449	0.387
NCI-H322M	1.14	1.19	1.21	0.924	1.12	0.999	0.901	0.881	0.635	0.571	0.483	0.473	0.445
NCI-H358	–	–	–	–	–	0.729	0.506	0.432	0.315	0.37	0.375	0.334	0.253
NCI-H441	0.546	0.566	0.571	0.665	0.297	0.379	0.294	0.312	0.239	0.399	0.62	0.564	0.299
NCI-H460	1.38	1.47	1.19	0.957	0.0442	0.0293	0.0297	0.0268	0.019	0.376	0.343	0.42	0.289
NCI-H520	1.12	1.17	1.06	1.07	0.713	0.209	0.218	0.244	0.281	0.319	0.323	0.225	0.204
NCI-H522	–	–	–	–	–	1.16	1.1	1.09	0.972	–	–	–	–
NCI-H596	1.04	0.983	1.03	0.912	0.444	0.975	0.934	0.798	0.941	0.43	0.383	0.365	0.298
NCI-H647	1.18	1.11	1.22	1.16	0.704	0.263	0.198	0.192	0.144	0.474	0.434	0.247	0.219
NCI-H650	–	–	–	–	–	0.863	0.734	0.9	0.858	0.958	0.731	0.868	0.644
NCI-H661	–	–	–	–	–	0.996	0.977	1	0.913	0.526	0.429	0.363	0.317
